“And” between values parts separate entries of the source, which are not always exact repeats. Identical values can stand only once.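 Cultured in 96-well plates, cells were exposed to test compound for 48 hours across five concentrations. Abbreviation: GI50, concentration required for 50% inhibition of growth. Definition used: TGI = concentration required for complete inhibition of growth.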
Legend:
Test in all cases: NCI anticancer screen, dose series, 48 h
[1] = test system: CCRF-CEM leukemia
[2] = test system: T-47D breast
[3] = test system: ACHN renal
[4] = test system: NCI-H23 lung
[5] = test system: SF-268 CNS
[6] = test system: OVCAR-4 ovarian
[7] = test system: DU-145 prostate
[8] = test system: OVCAR-3 ovarian
[9] = test system: MDA-MB-435
[10] = test system: EKVX NSCLC

| Structure (SMILES) | GI50 [1] | TGI [1] | GI50 [2] | TGI [2] | GI50 [3] | TGI [3] | GI50 [4] | TGI [4] | GI50 [5] | TGI [5] | GI50 [6] | TGI [6] | GI50 [7] | TGI [7] | GI50 [8] | TGI [8] | GI50 [9] | TGI [9] | GI50 [10] | TGI [10] |
| --- | --- | --- | --- | --- | --- | --- | --- | --- | --- | --- | --- | --- | --- | --- | --- | --- | --- | --- | --- | --- |
| COc1cc(-c2nccc3[nH]c(-c4ccc5cc[nH]c5c4)nc23)cc(OC)c1OC | < 0.01 µM | 12.2 µM | 1.26 µM | 4.38 µM | < 0.01 µM | 3.02 µM | < 0.01 µM | 4.2 µM | < 0.01 µM | 3.21 µM | 0.0307 µM | 17.1 µM | < 0.01 µM | 11.4 µM |  |  |  |  |  |  |
| CNCc1ccc(-c2cc(-c3nc(-c4ccc(S(=O)(=O)C(C)C)cc4)cnc3N)on2)cc1 | 0.215 µM | 3.42 µM | 15.7 µM | 37.8 µM | 0.115 µM | 10.9 µM | 0.676 µM | 28.3 µM | 1.41 µM | 3.29 µM | 5.05 µM | 22.8 µM | 0.798 µM | 5.91 µM | 2.93 µM | 10.6 µM | 1.35 µM | 2.79 µM |  |  |
| COc1cc2nnc3c4cccnc4[nH]c3c2cc1OC |  |  | 0.595 µM and 0.401 µM | 5.61 µM and 3.42 µM | 0.298 µM and 0.333 µM | 3.54 µM and 1.52 µM | 11.1 µM and 2.34 µM | 40.5 µM and 6.71 µM | 1.48 µM and 0.535 µM | 12.9 µM and 4.53 µM | 1.95 µM and 1.6 µM | 50 µM and > 100 µM | 4.32 µM and 2.1 µM | 18.3 µM and 5.11 µM | 1.37 µM and 1.15 µM | 22.6 µM and 5.5 µM | 5.66 µM and 2.23 µM | 38.7 µM and 6.96 µM | 3.39 µM and 2.43 µM | 50 µM and 8 µM |
| O=C1N[C@@H]2CCCC[C@@H]2C12CCCCC2 |  | > 100 µM |  |  |  | > 100 µM |  | > 100 µM |  | > 100 µM |  | > 100 µM |  |  |  | > 100 µM |  |  |  | > 100 µM |
| Cc1ccc(NC(=O)c2cc(S(=O)(=O)Nc3nnc(-c4ccccc4)c(-c4ccccc4)n3)c(SCc3ccccc3)cc2Cl)cc1 | 49.5 µM | > 100 µM |  |  | 17 µM | 31.3 µM | 18.1 µM | 34.2 µM | 20.2 µM | 84.5 µM | 25.7 µM | 92.2 µM | 20 µM | 37.9 µM | 17.5 µM | 35.1 µM | 15.9 µM | 35 µM | 18 µM | 37.6 µM |
| COCCOC1=C(Cl)C(=O)c2ccccc2C1=O |  |  |  |  | 1.88 µM | 3.59 µM | 3.24 µM | 13.5 µM | 2.24 µM | 9.32 µM | 2.17 µM | 4.68 µM | 3.1 µM | 10.7 µM | 1.66 µM | 3.06 µM | 3.08 µM | 10.4 µM | 3.51 µM | 15.8 µM |
| CCc1ccc(Nc2cc(C)c3ccc(O)cc3n2)cc1 |  |  | 4.83 µM | 23.3 µM | 5.82 µM | 19.5 µM | 3.34 µM | 15.6 µM | 11.2 µM | 30.3 µM | 12.4 µM | 30.9 µM | 12.1 µM | 28.1 µM | 11.7 µM | 27.8 µM | 6.94 µM | 20.3 µM |  |  |
